From ChEMBL document CHEMBL5143658, “Synthesis and biological evaluation of imidamide analogs as selective anti-trypanosomal agents” (Bioorg Med Chem, 2022)
pIC50: −log10 of the molar value. One block for each compound: values may come before it. Calls of active or inactive are those of the source. The rule behind the calls is not given here.

Tests used:
[1] = Cytotoxicity against mouse RAW264.7 cells assessed as inhibition of cell growth incubated for 48 hrs by MTT assay; assay type: toxicity, cell-based
[2] = Selectivity index, ratio of IC50 for cytotoxicity against mouse RAW264.7 cells to IC50 for antitrypanosomal activity against blood stream form of Trypanosoma brucei Lister 427; assay type: toxicity, cell-based; conditions: read-out: Ratio IC50
[3] = Cytotoxicity against HEK293 cells assessed as inhibition of cell growth incubated for 48 hrs by MTT assay; assay type: toxicity, cell-based; conditions: human
[4] = system: Trypanosoma brucei; assay: Antitrypanosomal activity against blood stream form of Trypanosoma brucei Lister 427 assessed as inhibition of parasite growth incubated for 48 hrs by MTS assay; assay type: functional, organism-based; conditions: Lister 427, 48 h
[5] = Selectivity index, ratio of IC50 for cytotoxicity against HEK293 cells to IC50 for antitrypanosomal activity against blood stream form of Trypanosoma brucei Lister 427; assay type: toxicity, cell-based; conditions: human, read-out: Ratio IC50
[6] = system: Trypanosoma brucei; assay: Inhibition of tubulin polymerization in blood stream form of Trypanosoma brucei Lister 427 assessed as reduction in polymerized tubulin level incubated for 12 hrs by Western blot analysis; conditions: dose 200-1000 nM

- pIC50 [4]: < 4.30
SMILES: COc1ccc(OC)c(COc2cc(NC(=O)c3ccc4c(c3)OCO4)ccc2NC(=N)N)c1
- IC50 at 48 h [1]: > 500 µM
- selectivity ratio [2]: 10
- IC50 at 48 h [3]: > 500 µM

- pIC50 [4]: 4.81
SMILES: CN(c1ccc(NC(=O)c2cccc(C(=N)N)c2)cc1OCc1cccc(C(F)(F)F)c1)S(=O)(=O)Cc1ccccc1
- IC50 at 48 h [1]: > 500 µM
- selectivity ratio [2]: 32.6
- IC50 at 48 h [3]: > 500 µM
- selectivity ratio [5]: > 32.6

- pIC50 [4]: 4.56
SMILES: COc1ccc(C(=O)Nc2ccc(NC(=N)N)c(OCc3cccc(C(F)(F)F)c3)c2)cc1
- IC50 at 48 h [1]: 102 µM
- selectivity ratio [2]: 3.71
- IC50 at 48 h [3]: 263 µM
- selectivity ratio [5]: 9.58

- pIC50 [4]: 4.56
SMILES: Cc1ccc(C)c(COc2cc(NC(=O)c3ccc(Cl)c(Cl)c3)ccc2NC(=N)N)c1
- IC50 at 48 h [1]: > 500 µM
- selectivity ratio [2]: 18.1
- IC50 at 48 h [3]: > 500 µM
- selectivity ratio [5]: > 18.1

- pIC50 [4]: 4.47
SMILES: N=C(N)Nc1ccc(NC(=O)c2ccc3c(c2)OCO3)cc1OCc1cccc(C(F)(F)F)c1
- IC50 at 48 h [1]: 101 µM
- selectivity ratio [2]: 2.99
- IC50 at 48 h [3]: 313 µM
- selectivity ratio [5]: 9.3

- pIC50 [4]: 4.55
SMILES: CN(c1ccc(NC(=O)c2ccc(C(=N)N)cc2)cc1OCc1ccc(C(F)(F)F)cc1)S(=O)(=O)Cc1ccccc1
- IC50 at 48 h [1]: > 500 µM
- selectivity ratio [2]: 17.6
- IC50 at 48 h [3]: > 500 µM
- selectivity ratio [5]: > 17.6

- pIC50 [4]: < 4.30
SMILES: CCCCCCOc1cc(NC(=O)c2ccc(OC)cc2)ccc1NC(=N)N
- IC50 at 48 h [1]: 259 µM
- selectivity ratio [2]: 5.17
- IC50 at 48 h [3]: > 500 µM

- pIC50 [4]: < 4.30
SMILES: COc1ccc(OC)c(COc2cc(NC(=O)c3cc(C(F)(F)F)cc(C(F)(F)F)c3)ccc2NC(=N)N)c1
- IC50 at 48 h [1]: 123 µM
- selectivity ratio [2]: 2.45
- IC50 at 48 h [3]: 307 µM
- selectivity ratio [5]: < 6.13

- pIC50 [4]: 4.82
SMILES: N=C(N)Nc1ccc(NC(=O)c2ccc(Cl)c(Cl)c2)cc1OCc1ccccc1C(F)(F)F
- IC50 at 48 h [1]: 196 µM
- selectivity ratio [2]: 12.8
- IC50 at 48 h [3]: > 500 µM
- selectivity ratio [5]: > 32.8

- pIC50 [4]: < 4.30
SMILES: CN(c1ccc(NC(=O)c2ccc(C(=N)N)cc2)cc1OCc1ccc(C(F)(F)F)cc1)S(=O)(=O)C(F)(F)F
- IC50 at 48 h [1]: > 500 µM
- selectivity ratio [2]: 10
- IC50 at 48 h [3]: > 500 µM

- pIC50 [4]: 4.86
SMILES: CN(c1ccc(NC(=O)c2cccc(C(=N)N)c2)cc1OCc1ccc(C(F)(F)F)cc1)S(=O)(=O)Cc1ccccc1
- IC50 at 48 h [1]: > 500 µM
- selectivity ratio [2]: 36.3
- IC50 at 48 h [3]: > 500 µM
- selectivity ratio [5]: > 36.3

- pIC50 [4]: < 4.30
SMILES: N=C(N)Nc1ccc(NC(=O)c2ccc3c(c2)OCO3)cc1OCc1ccc(C(F)(F)F)cc1
- IC50 at 48 h [1]: 27.2 µM
- selectivity ratio [2]: 0.54
- IC50 at 48 h [3]: 344 µM
- selectivity ratio [5]: < 6.87

- pIC50 [4]: < 4.30
SMILES: N=C(N)Nc1ccc(NC(=O)c2ccc(Cl)c(Cl)c2)cc1OCc1ccc(C(F)(F)F)cc1
- IC50 at 48 h [1]: > 500 µM
- selectivity ratio [2]: 10
- IC50 at 48 h [3]: > 500 µM

- pIC50 [4]: 4.68
SMILES: Cc1ccc(C)c(COc2cc(NC(=O)c3cc(C(F)(F)F)cc(C(F)(F)F)c3)ccc2NC(=N)N)c1
- IC50 at 48 h [1]: > 500 µM
- selectivity ratio [2]: 23.8
- IC50 at 48 h [3]: > 500 µM
- selectivity ratio [5]: > 23.8

SMILES: N=C(N)Nc1ccc(NC(=O)c2cc(C(F)(F)F)cc(C(F)(F)F)c2)cc1OCc1ccc(C(F)(F)F)cc1
- IC50 at 48 h [1]: > 500 µM
- selectivity ratio [2]: 29.6
- IC50 at 48 h [3]: 416 µM
- pIC50 [4]: 4.77
- selectivity ratio [5]: 24.6

- pIC50 [4]: 4.74
SMILES: N=C(N)Nc1ccc(NC(=O)c2ccc(C(F)(F)F)cc2C(F)(F)F)cc1OCc1ccc(C(F)(F)F)cc1
- IC50 at 48 h [1]: > 500 µM
- selectivity ratio [2]: 27.5
- IC50 at 48 h [3]: 286 µM
- selectivity ratio [5]: 15.7

SMILES: CN(c1ccc(NC(=O)c2cccc(C(=N)N)c2)cc1OCc1ccc(C(=N)N)cc1)S(=O)(=O)Cc1ccccc1
- IC50 at 48 h [1]: > 500 µM
- selectivity ratio [2]: 50000
- inhibition [6]: Active

- pIC50 [4]: < 4.30
SMILES: N=C(N)Nc1ccc(NC(=O)c2ccc3c(c2)OCO3)cc1OCc1ccccc1C(F)(F)F
- IC50 at 48 h [1]: > 500 µM
- selectivity ratio [2]: 10
- IC50 at 48 h [3]: 450 µM
- selectivity ratio [5]: < 9

- pIC50 [4]: < 4.30
SMILES: CCCCCCOc1cc(NC(=O)c2ccc3c(c2)OCO3)ccc1NC(=N)N
- IC50 at 48 h [1]: 460 µM
- selectivity ratio [2]: 9.2
- IC50 at 48 h [3]: 385 µM
- selectivity ratio [5]: < 7.7

- pIC50 [4]: 6.23
SMILES: CCS(=O)(=O)N(C)c1ccc(NC(=O)c2cccc(C(=N)N)c2)cc1OCc1ccc(C(=N)N)cc1
- IC50 at 48 h [1]: > 500 µM
- selectivity ratio [2]: 847
- IC50 at 48 h [3]: 426 µM
- selectivity ratio [5]: 722

SMILES: N=C(N)Nc1ccc(NC(=O)c2cc(C(F)(F)F)cc(C(F)(F)F)c2)cc1OCc1ccccc1C(F)(F)F
- IC50 at 48 h [1]: 481 µM
- selectivity ratio [2]: 10.7
- IC50 at 48 h [3]: > 500 µM
- pIC50 [4]: 4.35
- selectivity ratio [5]: > 11.1

- pIC50 [4]: 6.05
SMILES: COc1ccc(C(=O)Nc2ccc(NC(=N)N)c(OCc3cc(OC)ccc3OC)c2)cc1
- IC50 at 48 h [1]: 190 µM
- selectivity ratio [2]: 211
- IC50 at 48 h [3]: > 500 µM
- selectivity ratio [5]: > 556

- pIC50 [4]: < 4.30
SMILES: CN(c1ccc(NC(=O)c2cccc(C(=N)N)c2)cc1OCc1ccc(C(F)(F)F)cc1)S(=O)(=O)C(F)(F)F
- IC50 at 48 h [1]: > 500 µM
- selectivity ratio [2]: 10
- IC50 at 48 h [3]: > 500 µM

- pIC50 [4]: 4.32
SMILES: COc1ccc(C(=O)Nc2ccc(NC(=N)N)c(OCc3cc(C)ccc3C)c2)cc1
- IC50 at 48 h [1]: > 500 µM
- selectivity ratio [2]: 10.4
- IC50 at 48 h [3]: > 500 µM
- selectivity ratio [5]: > 10.4

- pIC50 [4]: 6.66
SMILES: Cc1ccc(C(F)(F)F)c(COc2cc(NC(=O)c3cccc(C(=N)N)c3)ccc2N(C)S(=O)(=O)C(F)(F)F)c1
- IC50 at 48 h [1]: 0.86 µM
- selectivity ratio [2]: 3.9
- IC50 at 48 h [3]: 25 µM
- selectivity ratio [5]: 114
